Experiment [1] concerns the target T1, Adenosine receptor A1 (Homo sapiens) (UniProt P30542).
T1 sequence (whole entry): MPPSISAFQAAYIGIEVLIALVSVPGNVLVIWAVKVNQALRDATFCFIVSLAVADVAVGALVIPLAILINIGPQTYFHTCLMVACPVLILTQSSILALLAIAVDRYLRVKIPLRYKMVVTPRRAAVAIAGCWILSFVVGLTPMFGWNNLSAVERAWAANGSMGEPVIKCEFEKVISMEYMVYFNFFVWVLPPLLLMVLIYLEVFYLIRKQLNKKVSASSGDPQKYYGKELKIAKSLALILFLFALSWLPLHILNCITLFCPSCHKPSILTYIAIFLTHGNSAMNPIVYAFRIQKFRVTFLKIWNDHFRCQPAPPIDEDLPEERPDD
Description: Binding affinity to SNAP-tagged-human A1 adenosine receptor expressed in HEK293 cells at 50 nM after 30 mins in presence of SLV320 by confocal microscopy method. In kind it is cell-based.

Experiment [2] addresses T2, Adenosine receptor A1 (Homo sapiens, UniProt P30542).
T2 sequence (P30542 whole entry): T1 sequence (whole entry)
Briefly: Displacement of [3H]DPCPX from human A1 adenosine receptor expressed in Flp-In-CHO cells by radioligand competitive binding assay. In kind it is cell-based.

Experiment [3] concerns the target T2, Adenosine receptor A1. Description: Binding affinity to NLuc human A1 adenosine receptor expressed in HEK293-A cells in presence of 1 uM SLV320 by NanoBRET binding assay. In kind it is cell-based.
In experiment [4] the target is T1, Adenosine receptor A1 (Homo sapiens). Description: Binding affinity to NLuc human A1 adenosine receptor expressed in HEK293-A cells assessed as maximal binding capacity in presence of 1 uM SLV320 by NanoBRET binding assay. In kind it is cell-based. The settings on record: filed as antagonist.
Experiment [5] addresses T3, Adenosine receptor A2a (Homo sapiens, UniProt P29274). Briefly: Binding affinity to NLuc human A2A adenosine receptor expressed in HEK293-A cells in presence of 1 uM ZM241385 by NanoBRET binding assay. The class given is cell-based. (In general: Bioluminescence resonance energy transfer reports proximity on the nanometre scale.)
The target of another experiment is T4, Adenosine receptor A2b (Homo sapiens, UniProt P29275).
T4 sequence (P29275 whole entry): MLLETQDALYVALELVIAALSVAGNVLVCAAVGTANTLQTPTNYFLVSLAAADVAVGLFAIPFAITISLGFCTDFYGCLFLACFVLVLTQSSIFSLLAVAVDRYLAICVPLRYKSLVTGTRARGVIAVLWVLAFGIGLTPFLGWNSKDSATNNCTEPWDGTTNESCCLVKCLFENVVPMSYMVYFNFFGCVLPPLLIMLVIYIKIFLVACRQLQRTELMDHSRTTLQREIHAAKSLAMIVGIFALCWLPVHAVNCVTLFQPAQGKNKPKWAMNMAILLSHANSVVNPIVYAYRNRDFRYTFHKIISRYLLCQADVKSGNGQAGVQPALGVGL
Description: Binding affinity to NLuc human A2B adenosine receptor expressed in HEK293-A cells in presence of 1 uM PSB603 by NanoBRET binding assay. The class given is cell-based.

The target of experiment [6] is T5, Adenosine receptor A3 (Homo sapiens, UniProt P0DMS8).
T5 sequence (P0DMS8 whole entry): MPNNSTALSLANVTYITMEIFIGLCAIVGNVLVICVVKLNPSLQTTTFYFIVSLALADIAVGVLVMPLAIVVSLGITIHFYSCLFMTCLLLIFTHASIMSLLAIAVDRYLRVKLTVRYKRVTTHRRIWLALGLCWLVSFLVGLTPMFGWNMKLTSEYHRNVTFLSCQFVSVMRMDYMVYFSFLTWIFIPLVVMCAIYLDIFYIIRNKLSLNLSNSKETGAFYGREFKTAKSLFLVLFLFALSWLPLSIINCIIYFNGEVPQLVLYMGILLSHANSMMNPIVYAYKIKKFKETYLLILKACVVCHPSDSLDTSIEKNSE
Briefly: Binding affinity to NLuc human A3 adenosine receptor expressed in HEK293-A cells in presence of 1 uM MRS1220 by NanoBRET binding assay. The class given is cell-based.

The target in experiment [7] is T1, Adenosine receptor A1 (Homo sapiens). Description: Antagonist activity at human A1 adenosine receptor expressed in Flp-In-CHO cells assessed as reduction in NECA-mediated inhibition of forskolin stimulated cAMP accumulation by cAMP assay. The class given is functional, cell-based. The settings on record: filed as antagonist. (In general: cAMP levels reflect the balance of adenylyl cyclase and phosphodiesterase activity.)

Experiment [8] shares this target. Description: Binding affinity to NanoLuc-human A1 adenosine receptor expressed in HEK293-A cells assessed as binding constant (kon) by NanoBRET competitive binding assay. The settings on record: filed as antagonist. In kind it is cell-based.
Experiment [9] has the same target. Description: Binding affinity to NanoLuc-human A1 adenosine receptor expressed in HEK293-A cells assessed as binding constant (koff) by NanoBRET competitive binding assay. The settings on record: filed as antagonist. The class given is cell-based.
In experiment [10] the target is T2, Adenosine receptor A1. Briefly: Binding affinity to NanoLuc-human A1 adenosine receptor expressed in HEK293-A cells assessed as kinetic dissociation constant by NanoBRET competitive binding assay. The class given is cell-based.
Experiment [11] has as its target T2, Adenosine receptor A1. Briefly: Binding affinity to NanoLuc human A1 adenosine receptor expressed in HEK293-A cells in prescence of SLV320 by NanoBRET competitive binding assay. In kind it is cell-based.
Experiment [12] deals with T2, Adenosine receptor A1. Description: Binding affinity to NanoLuc human A1 adenosine receptor expressed in HEK293-A cells in prescence of DPCPX by NanoBRET competitive binding assay. In kind it is cell-based.
The target in experiment [13] is T2, Adenosine receptor A1. Description: Binding affinity to NanoLuc human A1 adenosine receptor expressed in HEK293-A cells in prescence of NECA by NanoBRET competitive binding assay. In kind it is cell-based.
The target in experiment [14] is T1, Adenosine receptor A1 (Homo sapiens). Briefly: Binding affinity to SNAP-tagged-human A1 adenosine receptor expressed in HEK293 cells assessed as red fluorescent spot in plasma membrane pre-incubated with 10 uM SLV320 by microscopy based TIRF assay. The class given is cell membranes.
The target is the same in experiment [15]. Description: Binding affinity to SNAP-tagged-human A1 adenosine receptor expressed in HEK293 cells at 10 nM after 30 mins in presence of SLV320 by confocal microscopy method. The class given is cell-based.
Experiment [16] concerns the target T3, Adenosine receptor A2a. Description: Binding affinity to NLuc human A2A adenosine receptor expressed in HEK293-A cells assessed as maximal binding capacity in presence of 1 uM ZM241385 by NanoBRET binding assay. In kind it is cell-based. The settings on record: filed as antagonist.
In experiment [17] the target is T6, Adenosine receptor A2b (Homo sapiens) (UniProt P29275).
T6 sequence (whole entry): T4 sequence (P29275 whole entry)
Briefly: Binding affinity to NLuc human A2B adenosine receptor expressed in HEK293-A cells assessed as maximal binding capacity in presence of 1 uM PSB603 by NanoBRET binding assay. The class given is cell-based. The settings on record: filed as antagonist.

Experiment [18] deals with T7, Adenosine receptor A3 (Homo sapiens) (UniProt P0DMS8).
T7 sequence (whole entry): T5 sequence (P0DMS8 whole entry)
Description: Binding affinity to NLuc human A3 adenosine receptor expressed in HEK293-A cells assessed as maximal binding capacity in presence of 1 uM MRS1220 by NanoBRET binding assay. In kind it is cell-based. The settings on record: filed as antagonist.

Experiment [19] concerns the target T5, Adenosine receptor A3. Briefly: Agonist activity at A3 adenosine receptor (unknown origin). The class given is functional.

The source made the active and inactive calls. No cut-off for these calls is given here.

T3 sequence (P29274 whole entry): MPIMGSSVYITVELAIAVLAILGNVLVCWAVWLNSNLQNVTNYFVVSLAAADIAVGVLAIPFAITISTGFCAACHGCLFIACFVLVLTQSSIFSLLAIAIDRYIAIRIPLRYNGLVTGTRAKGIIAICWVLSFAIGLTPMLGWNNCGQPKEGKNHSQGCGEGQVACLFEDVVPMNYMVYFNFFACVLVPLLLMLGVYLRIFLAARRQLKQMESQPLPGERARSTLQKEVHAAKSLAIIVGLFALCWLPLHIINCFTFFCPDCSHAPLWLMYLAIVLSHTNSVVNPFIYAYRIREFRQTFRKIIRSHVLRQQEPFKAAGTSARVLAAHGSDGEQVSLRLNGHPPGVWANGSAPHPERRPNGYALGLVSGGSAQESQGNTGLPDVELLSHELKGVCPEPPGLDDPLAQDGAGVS

In general, Ki refers to the dissociation constant of the complex between target and ligand, obtained from inhibition or displacement. A higher Ki goes with lower affinity. By Kd is commonly meant the concentration at which binding is half-saturated. Broadly, the pKb is the Kb on a negative log10 scale, so that one unit is a factor of ten. Consider `CCCn1c(=O)c2[nH]c(C34CCC(C(=O)NCCNC(=O)CCNC(=O)CCNC(=O)CCCCC[N+]5=C(/C=C/C=C/C=C6/N(C)c7ccc(S(=O)(=O)O)cc7C6(C)C)C(C)(C)c6cc(S(=O)(=O)[O-])ccc65)(CC3)CC4)nc2n(CCC)c1=O`, for which the outcome in [1] and in experiment [14] was inactive. Moreover, the Ki at Adenosine receptor A1 [2] is 200 nM; on Adenosine receptor A1 [11], 0.708 nM; on Adenosine receptor A1 [12], 7.41 nM; on Adenosine receptor A1 [13], 398 nM. Moreover, the Kd was 44.7 nM at Adenosine receptor A1 [3]; over 1000 nM on Adenosine receptor A2a [5]; over 1000 nM at Adenosine receptor A2b; over 1000 nM on Adenosine receptor A3 [6]; 138 nM at Adenosine receptor A1 [10]. Further, in experiment [4], the Bmax turned out to be 0.03. In addition, the pKb in [7] was determined as 7.12. In addition, the K is 0.86 10^6/M/min in [8] and 0.117 min⁻¹ in experiment [9].

In turn, `CCCn1c(=O)c2[nH]c(C34CCC(C(=O)NCCNC(=O)CCCCCNC(=O)COc5ccc(/C=C/C6=[N+]7C(=Cc8ccc(-c9cccs9)n8[B-]7(F)F)C=C6)cc5)(CC3)CC4)nc2n(CCC)c1=O` gave a Ki at Adenosine receptor A1 [2] of 20.4 nM.

For the molecule `CCCn1c(=O)c2[nH]c(C34CC5CC(CC(C5)C3)C4)nc2n(CCCNC(=O)c2ccc(C(=O)NCCNC(=O)CCNC(=O)CCCCCNC(=O)COc3ccc(/C=C/C4=[N+]5C(=Cc6ccc(-c7cccs7)n6[B-]5(F)F)C=C4)cc3)cc2)c1=O`, the outcome in experiment [15] was inactive. Besides, the Ki at Adenosine receptor A1 [2] is 9.77 nM; at Adenosine receptor A1 [11], 1.41 nM; at Adenosine receptor A1 [12], 20.9 nM; at Adenosine receptor A1 [13], 1100 nM. For the same molecule, the Kd at Adenosine receptor A1 [3] is 3.16 nM; on Adenosine receptor A2a [5] it was 50.1 nM; on Adenosine receptor A2b it was 55 nM; on Adenosine receptor A3 [6], 58.9 nM; at Adenosine receptor A1 [10], 13.2 nM. Also, the Bmax came out at 0.019 in experiment [4], 0.003 at Adenosine receptor A2a [16], 0.004 in [17] and 0.001 in [18]. Also, the pKb in experiment [7] worked out at 8.72. Further, the K in experiment [8] was 3.6 10^6/M/min; in [9], 0.046 min⁻¹.

On Adenosine receptor A1 [2], `CCCn1c(=O)c2[nH]c(C34CCC(C(=O)NCCNC(=O)COCCNC(=O)OC(C)(C)C)(CC3)CC4)nc2n(CCC)c1=O` gave a Ki of 13.8 nM.

On Adenosine receptor A1 [2], `CCCn1c(=O)c2[nH]c(C34CC5CC(CC(C5)C3)C4)nc2n(CCCNC(=O)c2ccc(C(=O)NCCNC(=O)CCCCC[N+]3=C(/C=C/C=C/C=C4/N(C)c5ccc(S(=O)(=O)O)cc5C4(C)C)C(C)(C)c4cc(S(=O)(=O)[O-])ccc43)cc2)c1=O` gave a Ki of over 10000 nM.

In turn, `CCCn1c(=O)c2[nH]c(C34CCC(C(=O)NCCNC(=O)CCCCC[N+]5=C(/C=C/C=C/C=C6/N(C)c7ccc(S(=O)(=O)O)cc7C6(C)C)C(C)(C)c6cc(S(=O)(=O)[O-])ccc65)(CC3)CC4)nc2n(CCC)c1=O` had an inhibition constant (Ki) at Adenosine receptor A1 [2] of 851 nM.

With `CCCn1c(=O)c2[nH]c(C34CCC(CCC(=O)NCCNC(=O)COCCOCCNC(=O)OC(C)(C)C)(CC3)CC4)nc2n(CCC)c1=O`, the affinity at Adenosine receptor A1 [2] corresponds to a Ki of 13.2 nM. This Ki is about 64-fold lower than that of the molecule before.

At Adenosine receptor A1 [2], `CCCn1c(=O)c2[nH]c(C34CCC(CCC(=O)NCCNC(=O)CCNC(=O)CCNC(=O)OC(C)(C)C)(CC3)CC4)nc2n(CCC)c1=O` gave an inhibition constant (Ki) of 7.76 nM. Against the preceding molecule, the Ki is about 1.7-fold lower.

The EC50 is the concentration giving half of the maximal effect. Low readings indicate greater potency, high ones weaker potency. Molecule `CCNC(=O)[C@H]1O[C@@H](n2cnc3c(NCCCCNC(=O)CNC(=O)[C@@H](C)NC(=O)[C@@H](C)NC(=O)CCCCCNC(=O)COc4ccc(/C=C/C5=[N+]6C(=Cc7ccc(-c8cccs8)n7[B-]6(F)F)C=C5)cc4)ncnc32)[C@H](O)[C@@H]1O` gave an EC50 on Adenosine receptor A3 [19] of 3.31 nM.

`CCCn1c(=O)c2[nH]c(C34CCC(C(=O)NCCNC(=O)CCNC(=O)CCNC(=O)OC(C)(C)C)(CC3)CC4)nc2n(CCC)c1=O` had a Ki at Adenosine receptor A1 [2] of 4.37 nM.

Source of the values: ChEMBL document CHEMBL5042471, “Development and Application of Subtype-Selective Fluorescent Antagonists for the Study of the Human Adenosine A1 Receptor in Living Cells” (J Med Chem, 2021).
